This note sets out measurements from ChEMBL document CHEMBL3045502, “Microwave-assisted synthesis of some new tetrazolo[1,5-a]quinoline-based benzimidazoles catalyzed by p-TsOH and investigation of their antimicrobial activity” (2011).

Holding throughout (format): functional
In assay [1] the test system is Clostridium tetani. The experiment in a line: Antimicrobial activity against Clostridium tetani MTCC 449 after 24 to 48 hr by broth microdilution method. On the technique in general: Broth dilution looks for growth in wells or tubes with falling amounts of substance.
The test system of assay [2] is Vibrio cholerae. The experiment in a line: Antimicrobial activity against Vibrio cholerae MTCC 3906 after 24 to 48 hr by broth microdilution method.
Assay [3] deals with Escherichia coli. The experiment in a line: Antimicrobial activity against Escherichia coli MTCC 443 after 24 to 48 hr by broth microdilution method.
Assay [4] concerns Bacillus subtilis. The experiment in a line: Antimicrobial activity against Bacillus subtilis MTCC 441 after 24 to 48 hr by broth microdilution method.
The nature of assay [5]: (§1) Antimicrobial activity against Salmonella enterica subsp. enterica serovar Typhi MTCC 98 after 24 to 48 hr by broth microdilution method.
Assay [6] deals with Streptococcus pneumoniae. The experiment in a line: Antimicrobial activity against Streptococcus pneumoniae MTCC 1936 after 24 to 48 hr by broth microdilution method.
The test system of assay [7] is Candida albicans. Briefly: Antimicrobial activity against Candida albicans MTCC 227 after 24 to 48 hr by broth microdilution method.
The test system of assay [8] is Aspergillus fumigatus. Briefly: Antimicrobial activity against Aspergillus fumigatus MTCC 3008 after 24 to 48 hr by broth microdilution method.
Assay [9] relates to Salmonella typhimurium. Described as §1.

Converted amounts (≈) assume the structure as drawn.

For orientation: MIC means the lowest concentration that inhibits growth of the organism. High values mean weaker potency, low ones greater potency. Take GENTAMICIN: the MIC was determined as 5 µg/mL in assay [1]; 5 µg/mL in assay [2]; 0.05 µg/mL in [3]; 1 µg/mL in [4]; 5 µg/mL in assay [5]; 0.5 µg/mL in assay [6].
Regarding `Clc1ccc2c(c1)cc(-c1nc3ccccc3[nH]1)c1nnnn12`, the MIC in assay [1] was 250 µg/mL (≈ 779 µM); in assay [2] it was 500 µg/mL (≈ 1560 µM); in assay [3], 1000 µg/mL (≈ 3120 µM); in assay [4], 250 µg/mL (≈ 779 µM); in assay [7] it was 125 µg/mL (≈ 390 µM); in assay [8], 500 µg/mL (≈ 1560 µM). The MIC in assay [9] is 250 µg/mL (≈ 779 µM); in [6], 500 µg/mL (≈ 1560 µM).
As to `Cc1ccc2c(c1)cc(-c1nc3cc(Cl)ccc3[nH]1)c1nnnn12`, the MIC in [1] is 500 µg/mL (≈ 1490 µM); in assay [2], 500 µg/mL (≈ 1490 µM); in assay [3], 250 µg/mL (≈ 747 µM); in assay [4], 500 µg/mL (≈ 1490 µM); in assay [7] it was 1000 µg/mL (≈ 2990 µM); in [8], more than 1000 µg/mL. In addition, the MIC in assay [9] and in assay [6] was 500 µg/mL (≈ 1490 µM) each time.
Consider `Cc1ccc2c(c1)cc(-c1nc3cc(Br)ccc3[nH]1)c1nnnn12`, for which the MIC in [1] is 1000 µg/mL (≈ 2640 µM); in assay [2], 250 µg/mL (≈ 659 µM); in assay [3], 500 µg/mL (≈ 1320 µM); in assay [4] it was 500 µg/mL (≈ 1320 µM); in assay [7], 1000 µg/mL (≈ 2640 µM); in [8], more than 1000 µg/mL. The MIC came out at 500 µg/mL (≈ 1320 µM) in assay [9] and 250 µg/mL (≈ 659 µM) in assay [6].
As to `O=C(O)c1cn(C2CC2)c2cc(N3CCNCC3)c(F)cc2c1=O` [CIPROFLOXACIN], the MIC in assay [2] was found to be 25 µg/mL (≈ 75.4 µM); in assay [3], 25 µg/mL (≈ 75.4 µM); in assay [9], 25 µg/mL (≈ 75.4 µM); in [6] it was 50 µg/mL (≈ 151 µM).
Regarding `Cc1ccc2[nH]c(-c3cc4ccccc4n4nnnc34)nc2c1`, the minimal inhibitory concentration (MIC) in [1] was determined as 500 µg/mL (≈ 1660 µM); in assay [2] it was 500 µg/mL (≈ 1660 µM); in assay [3], 125 µg/mL (≈ 416 µM); in assay [4] it was 250 µg/mL (≈ 832 µM); in assay [7] it was 500 µg/mL (≈ 1660 µM); in assay [8], 1000 µg/mL (≈ 3330 µM). In addition, the MIC in assay [9] was 250 µg/mL (≈ 832 µM); in assay [6], 500 µg/mL (≈ 1660 µM).
`COc1ccc2c(c1)cc(-c1nc3ccccc3[nH]1)c1nnnn12`: the MIC in [1] was determined as 500 µg/mL (≈ 1580 µM); in [2], 250 µg/mL (≈ 790 µM); in [3], 250 µg/mL (≈ 790 µM); in assay [4], 250 µg/mL (≈ 790 µM); in assay [7], 500 µg/mL (≈ 1580 µM); in assay [8], 1000 µg/mL (≈ 3160 µM). In addition, the MIC in assay [9] and in [6] was 250 µg/mL (≈ 790 µM) each time.
As to `Cc1ccc2[nH]c(-c3cc4cc(Cl)ccc4n4nnnc34)nc2c1`, the MIC is 500 µg/mL (≈ 1490 µM) in [1]; 250 µg/mL (≈ 747 µM) in assay [2]; 250 µg/mL (≈ 747 µM) in [3]; 125 µg/mL (≈ 373 µM) in assay [4]; 1000 µg/mL (≈ 2990 µM) in assay [7]; more than 1000 µg/mL in assay [8]. For the same molecule, the MIC in assay [9] was determined as 500 µg/mL (≈ 1490 µM); in [6] it was 250 µg/mL (≈ 747 µM).
Consider `O=C(N[C@H](CO)[C@H](O)c1ccc([N+](=O)[O-])cc1)C(Cl)Cl` [CHLORAMPHENICOL], for which the MIC in assay [1], in assay [2], in [3], in [4], in assay [9] and in assay [6] was 50 µg/mL (≈ 155 µM) throughout.
Regarding `Clc1ccc2c(c1)cc(-c1nc3cc(Cl)ccc3[nH]1)c1nnnn12`, the minimum inhibitory concentration (MIC) in assay [1] was 250 µg/mL (≈ 704 µM); in [2], 500 µg/mL (≈ 1410 µM); in assay [3], 125 µg/mL (≈ 352 µM); in assay [4], 125 µg/mL (≈ 352 µM); in [7] it was 1000 µg/mL (≈ 2820 µM); in [8], more than 1000 µg/mL. Further, the results for the MIC in assay [9] and in [6] were 500 µg/mL (≈ 1410 µM) and 250 µg/mL (≈ 704 µM), respectively.
As to `Clc1ccc2[nH]c(-c3cc4ccccc4n4nnnc34)nc2c1`, the MIC turned out to be 500 µg/mL (≈ 1560 µM) in assay [1]; 500 µg/mL (≈ 1560 µM) in assay [2]; 250 µg/mL (≈ 779 µM) in assay [3]; 500 µg/mL (≈ 1560 µM) in [4]; 500 µg/mL (≈ 1560 µM) in assay [7]; 1000 µg/mL (≈ 3120 µM) in assay [8]. Moreover, the results for the MIC in [9] and in [6] were 100 µg/mL (≈ 312 µM) and 500 µg/mL (≈ 1560 µM), respectively.
As to `c1ccc2c(c1)cc(-c1nc3ccccc3[nH]1)c1nnnn12`, the minimal inhibitory concentration (MIC) in assay [1] is 250 µg/mL (≈ 873 µM); in [2], 200 µg/mL (≈ 699 µM); in [3] it was 500 µg/mL (≈ 1750 µM); in assay [4] it was 200 µg/mL (≈ 699 µM); in assay [7] it was 1000 µg/mL (≈ 3490 µM); in [8], more than 1000 µg/mL. Moreover, the MIC in assay [9] and in assay [6] was 500 µg/mL (≈ 1750 µM) each time.
Regarding `Clc1ccc2c(c1)cc(-c1nc3cc(Br)ccc3[nH]1)c1nnnn12`, the MIC in [1] was 500 µg/mL (≈ 1250 µM); in [2], 500 µg/mL (≈ 1250 µM); in assay [3], 250 µg/mL (≈ 626 µM); in assay [4], 250 µg/mL (≈ 626 µM); in [7], 1000 µg/mL (≈ 2500 µM); in [8], more than 1000 µg/mL. The values for the MIC in [9] and in assay [6] were 250 µg/mL (≈ 626 µM) and 500 µg/mL (≈ 1250 µM), respectively.
With `CCn1cc(C(=O)O)c(=O)c2cc(F)c(N3CCNCC3)cc21` [NORFLOXACIN], the MIC in [1] is 50 µg/mL (≈ 157 µM); in [2] it was 10 µg/mL (≈ 31.3 µM); in assay [3], 10 µg/mL (≈ 31.3 µM); in [4], 100 µg/mL (≈ 313 µM); in [9], 10 µg/mL (≈ 31.3 µM); in [6], 10 µg/mL (≈ 31.3 µM).
With `COc1ccc2c(c1)cc(-c1nc3cc(C)ccc3[nH]1)c1nnnn12`, the MIC in assay [1] was 250 µg/mL (≈ 757 µM); in assay [2] it was 500 µg/mL (≈ 1510 µM); in assay [3], 500 µg/mL (≈ 1510 µM); in [4] it was 500 µg/mL (≈ 1510 µM); in [7], 250 µg/mL (≈ 757 µM); in assay [8] it was 500 µg/mL (≈ 1510 µM). Moreover, the MIC in assay [9] and in assay [6] was 500 µg/mL (≈ 1510 µM) throughout.
Consider `COC1=CC(=O)C[C@@H](C)[C@]12Oc1c(Cl)c(OC)cc(OC)c1C2=O` [GRISEOFULVIN], for which the MIC came to 500 µg/mL (≈ 1420 µM) in assay [7] and 100 µg/mL (≈ 283 µM) in [8].
On the same counts, the results for NYSTATIN are 100 µg/mL and 100 µg/mL.
For `COc1ccc2c(c1)cc(-c1nc3cc(Br)ccc3[nH]1)c1nnnn12`, the MIC in assay [1] is 250 µg/mL (≈ 633 µM); in assay [2] it was 500 µg/mL (≈ 1270 µM); in assay [3], 500 µg/mL (≈ 1270 µM); in [4], 500 µg/mL (≈ 1270 µM); in [7] it was 1000 µg/mL (≈ 2530 µM); in assay [8], 1000 µg/mL (≈ 2530 µM). In addition, the figures for the MIC in assay [9] and in assay [6] were 500 µg/mL (≈ 1270 µM) and 1000 µg/mL (≈ 2530 µM), respectively.
For the molecule `CC1(C)S[C@@H]2[C@H](NC(=O)[C@H](N)c3ccccc3)C(=O)N2[C@H]1C(=O)O` [AMPICILLIN], the MIC was 250 µg/mL (≈ 715 µM) in assay [1]; 100 µg/mL (≈ 286 µM) in assay [2]; 100 µg/mL (≈ 286 µM) in assay [3]; 250 µg/mL (≈ 715 µM) in assay [4]; 100 µg/mL (≈ 286 µM) in assay [9]; 100 µg/mL (≈ 286 µM) in [6].
In the case of `COc1ccc2c(c1)cc(-c1nc3cc(Cl)ccc3[nH]1)c1nnnn12`, the MIC in [1] was 500 µg/mL (≈ 1430 µM); in assay [2] it was 500 µg/mL (≈ 1430 µM); in [3] it was 500 µg/mL (≈ 1430 µM); in assay [4] it was 125 µg/mL (≈ 356 µM); in assay [7], 250 µg/mL (≈ 713 µM); in assay [8], 500 µg/mL (≈ 1430 µM). The MIC in [9] and in assay [6] was 500 µg/mL (≈ 1430 µM) in each case.
As for `Cc1ccc2c(c1)cc(-c1nc3cc(C)ccc3[nH]1)c1nnnn12`, the MIC is 500 µg/mL (≈ 1590 µM) in assay [1]; 500 µg/mL (≈ 1590 µM) in assay [2]; 250 µg/mL (≈ 795 µM) in assay [3]; 500 µg/mL (≈ 1590 µM) in assay [4]; 1000 µg/mL (≈ 3180 µM) in assay [7]; more than 1000 µg/mL in [8]. The MIC in [9] was 1000 µg/mL (≈ 3180 µM); in assay [6], 500 µg/mL (≈ 1590 µM).
`Brc1ccc2[nH]c(-c3cc4ccccc4n4nnnc34)nc2c1`: the MIC is 250 µg/mL (≈ 685 µM) in assay [1]; 250 µg/mL (≈ 685 µM) in [2]; 100 µg/mL (≈ 274 µM) in assay [3]; 500 µg/mL (≈ 1370 µM) in [4]; 1000 µg/mL (≈ 2740 µM) in [7]; 1000 µg/mL (≈ 2740 µM) in assay [8]. The MIC in assay [9] was found to be 100 µg/mL (≈ 274 µM); in assay [6] it was 250 µg/mL (≈ 685 µM).
On to `Cc1ccc2c(c1)cc(-c1nc3ccccc3[nH]1)c1nnnn12`, for which the MIC in [1] is 200 µg/mL (≈ 666 µM); in assay [2], 250 µg/mL (≈ 832 µM); in [3] it was 100 µg/mL (≈ 333 µM); in [4], 100 µg/mL (≈ 333 µM); in assay [7] it was 1000 µg/mL (≈ 3330 µM); in assay [8], 1000 µg/mL (≈ 3330 µM). In addition, the MIC in assay [9] turned out to be 125 µg/mL (≈ 416 µM); in assay [6] it was 200 µg/mL (≈ 666 µM).
